# Measurements: ChEMBL document CHEMBL1138438, “Structural-activity relationship study of highly-functionalized imidazolines as potent inhibitors of nuclear transcription factor-kappaB mediated IL-6 production” (Bioorg Med Chem, 2009)
# Experiments:
# [1] = system: HeLa; test: Effect on cell cycle arrest in human HeLa cells transfected with NFkappaB-Luc assessed as cell debris level at 20 uM after 8 hrs by using propidium iodide staining by FACS analysis; assay type: functional
# [2] = system: HeLa; test: Effect on cell cycle arrest in TNF-alpha-stimulated human HeLa cells transfected with NFkappaB-Luc assessed as cell aggregate level at 0.5 uM after 8 hrs by using propidium iodide staining by FACS analysis; assay type: functional
# [3] = system: HeLa; test: Cell cycle arrest in TNF-alpha-stimulated human HeLa cells transfected with NFkappaB-Luc assessed as accumulation at diploid stage at 5 uM after 8 hrs by using propidium iodide staining by FACS analysis; assay type: functional
# [4] = system: HeLa; test: Cell cycle arrest in TNF-alpha-stimulated human HeLa cells transfected with NFkappaB-Luc assessed as accumulation at total S phase at 1 uM after 8 hrs by using propidium iodide staining by FACS analysis; assay type: functional
# [5] = system: HeLa; test: Cell cycle arrest in TNF-alpha-stimulated human HeLa cells transfected with NFkappaB-Luc assessed as accumulation at G2/G1 phase at 5 uM after 8 hrs by using propidium iodide staining by FACS analysis; assay type: functional
# [6] = system: HeLa; test: Cell cycle arrest in human HeLa cells transfected with NFkappaB-Luc assessed as accumulation at total S phase at 20 uM after 8 hrs by using propidium iodide staining by FACS analysis; assay type: functional
# [7] = system: HeLa; test: Cell cycle arrest in TNF-alpha-stimulated human HeLa cells transfected with NFkappaB-Luc assessed as accumulation at diploid stage at 0.05 uM after 8 hrs by using propidium iodide staining by FACS analysis; assay type: functional
# [8] = Cytotoxicity against human whole blood lymphocytes assessed as survival cell count in millions at 20 uM after 24 hrs by trypan blue staining-based hemocytometry
# [9] = system: HeLa; test: Cell cycle arrest in TNF-alpha-stimulated human HeLa cells transfected with NFkappaB-Luc assessed as accumulation at diploid G2 phase at 0.05 uM after 8 hrs by using propidium iodide staining by FACS analysis; assay type: functional
# [10] = Cytotoxicity against IL-1-beta-stimulated human whole blood lymphocytes assessed as survival cell count in millions at 10 uM after 24 hrs by trypan blue staining-based hemocytometry
# [11] = system: HeLa; test: Effect on cell cycle arrest in TNF-alpha-stimulated human HeLa cells transfected with NFkappaB-Luc assessed as cell debris level at 0.5 uM after 8 hrs by using propidium iodide staining by FACS analysis; assay type: functional
# [12] = Cytotoxicity against human whole blood lymphocytes assessed as survival cell count in millions at 1 uM after 24 hrs by trypan blue staining-based hemocytometry
# [13] = system: HeLa; test: Effect on cell cycle arrest in TNF-alpha-stimulated human HeLa cells transfected with NFkappaB-Luc assessed as total background cell aggregate and debris level at 10 uM after 8 hrs by using propidium iodide staining by FACS analysis; assay type: functional
# [14] = system: HeLa; test: Effect on cell cycle arrest in TNF-alpha-stimulated human HeLa cells transfected with NFkappaB-Luc assessed as total background cell aggregate and debris level at 1 uM after 8 hrs by using propidium iodide staining by FACS analysis; assay type: functional
# [15] = system: HeLa; test: Effect on cell cycle arrest in TNF-alpha-stimulated human HeLa cells transfected with NFkappaB-Luc assessed as cell aggregate level at 0.05 uM after 8 hrs by using propidium iodide staining by FACS analysis; assay type: functional
# [16] = system: HeLa; test: Cell cycle arrest in TNF-alpha-stimulated human HeLa cells transfected with NFkappaB-Luc assessed as accumulation at total S phase at 0.5 uM after 8 hrs by using propidium iodide staining by FACS analysis; assay type: functional
# [17] = system: HeLa; test: Effect on cell cycle arrest in human HeLa cells transfected with NFkappaB-Luc assessed as total background cell aggregate and debris level at 20 uM after 8 hrs by using propidium iodide staining by FACS analysis; assay type: functional
# [18] = system: HeLa; test: Cell cycle arrest in TNF-alpha-stimulated human HeLa cells transfected with NFkappaB-Luc assessed as accumulation at diploid stage at 20 uM after 8 hrs by using propidium iodide staining by FACS analysis; assay type: functional
# [19] = system: HeLa; test: Cell cycle arrest in TNF-alpha-stimulated human HeLa cells transfected with NFkappaB-Luc assessed as accumulation at diploid stage at 0.5 uM after 8 hrs by using propidium iodide staining by FACS analysis; assay type: functional
# [20] = system: HeLa; test: Cell cycle arrest in TNF-alpha-stimulated human HeLa cells transfected with NFkappaB-Luc assessed as accumulation at G2/G1 phase at 0.05 uM after 8 hrs by using propidium iodide staining by FACS analysis; assay type: functional
# [21] = system: HeLa; test: Cell cycle arrest in TNF-alpha-stimulated human HeLa cells transfected with NFkappaB-Luc assessed as accumulation at G2/G1 phase at 0.1 uM after 8 hrs by using propidium iodide staining by FACS analysis; assay type: functional
# [22] = system: HeLa; test: Cell cycle arrest in TNF-alpha-stimulated human HeLa cells transfected with NFkappaB-Luc assessed as accumulation at diploid G2 phase at 0.5 uM after 8 hrs by using propidium iodide staining by FACS analysis; assay type: functional
# [23] = system: HeLa; test: Cell cycle arrest in TNF-alpha-stimulated human HeLa cells transfected with NFkappaB-Luc assessed as accumulation at diploid S phase at 5 uM after 8 hrs by using propidium iodide staining by FACS analysis; assay type: functional
# [24] = Cytotoxicity against human whole blood lymphocytes assessed as survival cell count in millions at 10 uM after 24 hrs by trypan blue staining-based hemocytometry
# [25] = system: HeLa; test: Effect on cell cycle arrest in TNF-alpha-stimulated human HeLa cells transfected with NFkappaB-Luc assessed as total background cell aggregate and debris level at 20 uM after 8 hrs by using propidium iodide staining by FACS analysis; assay type: functional
# [26] = system: HeLa; test: Effect on cell cycle arrest in TNF-alpha-stimulated human HeLa cells transfected with NFkappaB-Luc assessed as cell aggregate level at 5 uM after 8 hrs by using propidium iodide staining by FACS analysis; assay type: functional
# [27] = system: Blood; test: Antiinflammatory activity in human whole blood assessed as inhibition of IL-1-beta-stimulated IL6 production preincubated 2 hrs before IL1-beta challenge measured after 18 hrs by ELISA; assay type: functional, tissue-based
# [28] = system: HeLa; test: Cell cycle arrest in human HeLa cells transfected with NFkappaB-Luc assessed as accumulation at diploid G2 phase at 20 uM after 8 hrs by using propidium iodide staining by FACS analysis; assay type: functional
# [29] = system: HeLa; test: Effect on cell cycle arrest in TNF-alpha-stimulated human HeLa cells transfected with NFkappaB-Luc assessed as cell debris level at 0.05 uM after 8 hrs by using propidium iodide staining by FACS analysis; assay type: functional
# [30] = system: HeLa; test: Cell cycle arrest in TNF-alpha-stimulated human HeLa cells transfected with NFkappaB-Luc assessed as accumulation at diploid S phase at 0.05 uM after 8 hrs by using propidium iodide staining by FACS analysis; assay type: functional
# [31] = system: HeLa; test: Cell cycle arrest in TNF-alpha-stimulated human HeLa cells transfected with NFkappaB-Luc assessed as accumulation at G2/G1 phase at 10 uM after 8 hrs by using propidium iodide staining by FACS analysis; assay type: functional
# [32] = system: HeLa; test: Cell cycle arrest in TNF-alpha-stimulated human HeLa cells transfected with NFkappaB-Luc assessed as accumulation at diploid S phase at 0.5 uM after 8 hrs by using propidium iodide staining by FACS analysis; assay type: functional
smiles,measurement,setting,value
CCOC(=O)[C@]1(c2ccccc2)N=C(c2ccccc2)N(Cc2ccccc2)[C@@H]1c1ccccc1 (racemic),Activity,[1],9.42%
same,Activity,[2],0%
same,Activity,[3],100%
same,Activity,[4],22.9%
same,Activity,[5],1.91%
same,Activity,[6],21.48%
same,Activity,[7],100%
same,Activity,[8],1.02 mL⁻¹
same,Activity,[9],12.9%
same,Activity,[10],0.92 mL⁻¹
same,Activity,[11],3.68%
same,Activity,[12],0.8 mL⁻¹
same,Activity,[13],6.27%
same,Activity,[14],1.87%
same,Activity,[15],0%
same,Activity,[16],22.52%
same,Activity,[17],3.86%
same,Activity,[18],100%
same,Activity,[19],100%
same,Activity,[20],1.91%
same,Activity,[21],1.92%
same,Activity,[22],13.4%
same,Activity,[23],19.8%
same,Activity,[24],1.04 mL⁻¹
same,Activity,[25],5.59%
same,Activity,[26],0%
same,Activity,[27],Dose-dependent effect
same,IC50,[27]; read-out: IC50,800 nM
same,IC50,[27]; read-out: Log IC50 (converted),794 nM
same,Activity,[28],13.33%
same,Activity,[29],2.47%
same,Activity,[30],22.8%
same,Activity,[31],1.91%
same,Activity,[32],22.52%
